Test results reported in patent US7235649B2, “Isolated GRP94 ligand binding domain polypeptide and nucleic acid encoding same, and screening methods employing same” (Duke University, priority 2000, dated 2007).
Values belong to the molecule of their own block, whether it stands above or below them.

What was measured:
[1] = biological target: casein kinase II (Homo sapiens, UniProt P68400); test: Casein kinase II assay with casein; format: biochemical; details: 180 μM NECA or 180 μM radicicol in 3.6% DMSO, 5 μg/ml heparin, 5 mM GTP; 4 μM casein
casein kinase II, sequence (P68400 whole entry): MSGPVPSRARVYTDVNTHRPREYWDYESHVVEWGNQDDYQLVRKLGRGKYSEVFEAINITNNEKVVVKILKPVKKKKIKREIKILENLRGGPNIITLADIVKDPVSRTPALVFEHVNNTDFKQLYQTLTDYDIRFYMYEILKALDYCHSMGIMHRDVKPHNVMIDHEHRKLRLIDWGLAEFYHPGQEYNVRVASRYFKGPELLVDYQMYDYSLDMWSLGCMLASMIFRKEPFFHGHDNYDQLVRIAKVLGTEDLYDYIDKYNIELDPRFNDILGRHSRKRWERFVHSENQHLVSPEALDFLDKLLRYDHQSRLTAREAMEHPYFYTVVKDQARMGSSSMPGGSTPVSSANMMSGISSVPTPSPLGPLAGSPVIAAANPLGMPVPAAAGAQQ
casein kinase II, sequence (P67870 whole entry partner): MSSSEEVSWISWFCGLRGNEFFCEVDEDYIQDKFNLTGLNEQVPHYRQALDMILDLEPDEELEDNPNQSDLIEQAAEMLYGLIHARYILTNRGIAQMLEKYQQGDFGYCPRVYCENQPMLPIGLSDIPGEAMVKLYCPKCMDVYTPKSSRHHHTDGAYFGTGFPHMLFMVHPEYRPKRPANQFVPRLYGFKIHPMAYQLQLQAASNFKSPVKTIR
Procedure: (§1) Phosphorylation Assays. […] For the casein kinase assay, 1 unit of casein kinase 11 was incubated as described above, with the addition of 4 μM casein. […] The 25 μl reaction mixtures were incubated at 37° C. for 1 hour and quenched by addition of 10% trichloroacetic acid. Samples were analyzed by 10% SDS-PAGE gels and the phosphorylated species were quantitated using a Fuji MACBAS1000™ phosphorimaging system (Fuji Medical Systems of Stamford, Conn.).

[2] = biological target: N-terminal nucleotide binding pocket of Hsp90 (Saccharomyces cerevisiae, UniProt P02829); details: cited from earlier work
N-terminal nucleotide binding pocket of Hsp90, sequence (P02829 whole entry): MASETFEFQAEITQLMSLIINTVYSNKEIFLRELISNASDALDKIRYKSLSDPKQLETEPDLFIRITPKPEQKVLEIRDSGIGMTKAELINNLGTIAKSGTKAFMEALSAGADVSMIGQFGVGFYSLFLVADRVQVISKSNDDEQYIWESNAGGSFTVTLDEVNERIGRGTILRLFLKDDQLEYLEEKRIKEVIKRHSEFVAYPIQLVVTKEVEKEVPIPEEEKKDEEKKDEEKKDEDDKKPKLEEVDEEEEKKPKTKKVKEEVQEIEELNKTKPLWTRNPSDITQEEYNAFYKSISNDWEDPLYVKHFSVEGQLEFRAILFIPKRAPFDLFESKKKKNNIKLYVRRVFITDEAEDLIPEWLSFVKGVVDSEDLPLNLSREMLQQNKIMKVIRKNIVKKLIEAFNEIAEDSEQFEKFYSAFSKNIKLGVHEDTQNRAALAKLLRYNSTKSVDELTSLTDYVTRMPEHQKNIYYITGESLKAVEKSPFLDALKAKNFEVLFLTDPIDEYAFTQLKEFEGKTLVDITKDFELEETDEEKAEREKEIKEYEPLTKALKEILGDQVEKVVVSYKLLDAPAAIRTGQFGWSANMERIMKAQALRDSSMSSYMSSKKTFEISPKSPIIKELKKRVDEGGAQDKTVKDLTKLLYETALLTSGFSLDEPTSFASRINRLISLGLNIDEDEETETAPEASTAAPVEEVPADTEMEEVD

[3] = biological target: T1, GRP94 (Sus scrofa, UniProt Q29092); test: [3H]-NECA competitive displacement assay; format: binding, porcine; set-up: GRP94 was purified from porcine pancreas rough microsomes; from tissue; host or cells: porcine pancreas rough microsomes; details: for nucleoside base specificity: binding by [3H]-NECA competitive displacement: competitors all at 50 μM; for nucleoside base specificity: binding by [3H]-NECA competitive displacement / competition with [3H]-NECA for binding to GRP94 (adenosine ligands): 20 nM [3H]-NECA; for competition with [3H]-NECA for binding to GRP94 (adenosine ligands): nominal (80 μM) Mg2+; for effect of excess Mg2+ on binding to GRP94: 10 mM Mg(OAc)2 vs nominal endogenous magnesium
T1 sequence (Q29092 22-804): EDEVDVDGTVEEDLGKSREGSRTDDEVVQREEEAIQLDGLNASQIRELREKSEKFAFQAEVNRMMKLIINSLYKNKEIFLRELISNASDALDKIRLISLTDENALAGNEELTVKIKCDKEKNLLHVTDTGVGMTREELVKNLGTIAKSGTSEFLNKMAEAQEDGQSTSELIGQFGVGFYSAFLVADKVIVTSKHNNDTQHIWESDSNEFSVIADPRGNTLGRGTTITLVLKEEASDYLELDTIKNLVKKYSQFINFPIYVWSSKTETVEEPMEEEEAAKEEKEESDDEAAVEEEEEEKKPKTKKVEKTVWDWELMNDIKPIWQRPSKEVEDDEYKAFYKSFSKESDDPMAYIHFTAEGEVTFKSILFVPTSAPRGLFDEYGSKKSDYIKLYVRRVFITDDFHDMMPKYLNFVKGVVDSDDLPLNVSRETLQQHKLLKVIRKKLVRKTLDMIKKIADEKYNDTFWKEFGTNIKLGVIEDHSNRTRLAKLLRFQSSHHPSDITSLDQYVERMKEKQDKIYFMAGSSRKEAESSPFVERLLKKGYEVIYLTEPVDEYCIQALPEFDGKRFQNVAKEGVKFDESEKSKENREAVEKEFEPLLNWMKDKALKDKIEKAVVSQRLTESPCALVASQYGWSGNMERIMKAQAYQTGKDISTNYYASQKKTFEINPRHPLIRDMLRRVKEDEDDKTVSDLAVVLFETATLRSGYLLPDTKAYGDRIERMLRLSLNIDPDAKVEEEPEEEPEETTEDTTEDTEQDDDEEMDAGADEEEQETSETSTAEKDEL

[4] = biological target: T1, GRP94; test: GRP94 autophosphorylation assay; format: biochemical, porcine; set-up: GRP94 was purified from porcine pancreas rough microsomes; from tissue; host or cells: porcine pancreas rough microsomes; details: 180 μM NECA or 180 μM radicicol in 3.6% DMSO, 5 μg/ml heparin, 5 mM GTP; 1 hour 37° C.
Procedure: as §1

[5] = biological target: T1, GRP94; test: Tryptophan fluorescence (ligand-induced conformational change); details: 50 μM NECA, 50 μM geldanamycin, 2.5 mM ATP or 2.5 mM ADP, 1 hour at 37° C.
[6] = biological target: T1, GRP94; test: Fluorophore binding reactions with native or heat shocked GRP94 (fluorescence emission); details: for fluorophore binding to heat shocked GRP94: 0.5 μM GRP94 heat shocked 15 minutes at 50° C., 5 μM probe

nucleoside base specificity: binding by [3H]-NECA competitive displacement [3]: little to no binding
Molecule: Nc1ccn([C@@H]2O[C@H](COP(=O)(O)OP(=O)(O)OP(=O)(O)O)[C@@H](O)[C@H]2O)c(=O)n1 [CTP]

nucleoside base specificity: binding by [3H]-NECA competitive displacement [3]: little to no binding
effect on GRP94 autophosphorylation activity [4]: markedly attenuated
effect on casein kinase II activity [1]: markedly attenuated
Molecule: Nc1nc2c(ncn2[C@@H]2O[C@H](COP(=O)(O)OP(=O)(O)OP(=O)(O)O)[C@@H](O)[C@H]2O)c(=O)[nH]1 [GTP]

effect on GRP94 autophosphorylation activity [4]: markedly attenuated
effect on casein kinase II activity [1]: markedly attenuated
Molecule: heparin

nucleoside base specificity: binding by [3H]-NECA competitive displacement [3]: little to no binding
Molecule: O=c1ccn([C@@H]2O[C@H](COP(=O)(O)OP(=O)(O)OP(=O)(O)O)[C@@H](O)[C@H]2O)c(=O)[nH]1 [UTP]

effect of excess Mg2+ on binding to GRP94 [3]: without effect
Molecule: Nc1ncnc2c1ncn2[C@@H]1O[C@H](CO)[C@@H](O)[C@H]1O [adenosine]
competition with [3H]-NECA for binding to GRP94 (adenosine ligands) [3]: relative displacement activity approximating that observed for ADP

nucleoside base specificity: binding by [3H]-NECA competitive displacement [3]: could bind
Molecule: Nc1ncnc2c1ncn2[C@H]1C[C@H](O)[C@@H](COP(=O)(O)OP(=O)(O)OP(=O)(O)O)O1 [deoxyATP]

The next lines start with the molecule.

Molecule: C[C@@H]1C[C@H]2O[C@@H]2/C=C\C=C\C(=O)Cc2c(Cl)c(O)cc(O)c2C(=O)O1 [radicicol]
effect on casein kinase II activity [1]: neither NECA nor radicicol, both of which bind to the N-terminal nucleotide binding domain of GRP94, significantly inhibit GRP94 derived or casein kinase II activity
binding stoichiometry of radicicol to Hsp90 ([2]; Roe et al. (1999)): 2 mol radicicol/mol Hsp90 dimer

Molecule: Nc1ncnc2c1ncn2[C@@H]1O[C@H](COP(=O)(O)OP(=O)(O)O)[C@@H](O)[C@H]1O [ADP]
competition with [3H]-NECA for binding to GRP94 (adenosine ligands) [3]: effectively competed
effect of excess Mg2+ on binding to GRP94 [3]: markedly stimulated
extent of competition of NECA binding to GRP94 ([3]; FIGS. 10A–10C): wholly competed
relative affinities for GRP94 in presence of Mg2+ ([3]; excess Mg2+): nearly identical relative affinities
change of GRP94 tryptophan fluorescence [5]: the tryptophan fluorescence was decreased
affinity of N-terminal domain of Hsp90 for ADP relative to ATP ([2]; Prodromou et al. (1997)): four-fold higher affinity than that observed for ATP

Molecule: Nc1ncnc2c1ncn2[C@@H]1O[C@H](COP(=O)(O)O)[C@@H](O)[C@H]1O [AMP]
competition with [3H]-NECA for binding to GRP94 (adenosine ligands) [3]: effectively competed
effect of excess Mg2+ on binding to GRP94 [3]: markedly stimulated

Molecule: O=S(=O)(O)c1cccc2cccc(Nc3ccccc3)c12 [8-ANS, 1,8-anilinonaphthalenesulfonate]
fluorophore binding to heat shocked GRP94 [6]: binds avidly following heat shock
fluorophore binding to native GRP94 ([6]; 0.5 μM native GRP94, 5 μM probe, 30 min at 37° C.): weak interactions with native GRP94

Molecule: CCC(=O)c1ccc2cc(N(C)C)ccc2c1 [Prodan, 6-propionyl-2-(dimethylamino)naphthalene]
fluorophore binding to heat shocked GRP94 [6]: does not interact with the hydrophobic binding pocket(s) displayed by heat shocked GRP94
